“Also recorded” adds a separate entry of the source. Peptide text beside a SMILES is read from it.
Experiments:
[1] = biological target: CMG2 (Homo sapiens, UniProt P58335, C175A/R40C); experiment: biochemical; type: binding; settings: for koff: read-out: off-rate / koff (BLI)
[2] = biological target: TEM8 (Homo sapiens, UniProt Q9H6X2); type: binding; settings: 250nM mCitrine-TEM8, 325nM PA-546; S16 313 nM to 40 μM
[3] = test system: EOMA cells; type: cell-based, murine
[4] = test system: EOMA cells; type: cell-based, murine; settings: n=3
[5] = test system: EA.hy926 cells; type: cell-based, human

Sequence of CMG2 (P58335 40-217 R40C/C175A limits assumed): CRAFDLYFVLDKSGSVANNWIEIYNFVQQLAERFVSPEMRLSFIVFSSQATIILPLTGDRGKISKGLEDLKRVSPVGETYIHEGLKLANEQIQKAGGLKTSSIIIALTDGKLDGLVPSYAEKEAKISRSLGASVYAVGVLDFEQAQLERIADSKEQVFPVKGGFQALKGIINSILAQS
Sequence of TEM8 (Q9H6X2 44-215 limits assumed): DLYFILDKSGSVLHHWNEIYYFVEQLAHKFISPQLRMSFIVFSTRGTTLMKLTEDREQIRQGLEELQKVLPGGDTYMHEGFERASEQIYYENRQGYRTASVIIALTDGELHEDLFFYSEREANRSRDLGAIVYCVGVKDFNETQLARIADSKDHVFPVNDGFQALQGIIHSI

Molecule | S16 binding to CMG2 in EDTA (BLI) ([1]; 10 mM EDTA instead of 2 mM CaCl2 and 1 mM MgCl2, 10 µM S16, n=3) | on-rate (BLI) ([1]; 1:1 model) | binding on BLI of S16 prepared to encourage monomerization ([1]; S16 prepared in a fashion that encourages monomerization) | koff [1] [s⁻¹] | S16 binding to CMG2 sensors treated with PA before S16 (BLI) ([1]; sensors equilibrated with 500 nM PA, then 10 µM S16, n=3) | inhibition of TEM8-PA FRET [2] | proliferation relative to untreated control [3] | reduction in wound closure [4] [%] | reduction of migration toward serum [5] | kon (BLI) ([1]; representative fit) [M/s] | binding of CMG2 (BLI), in words ([1]; concentrations up to 30 μM, 3 independent experiments, no binding model fits) | directional migration versus vehicle [5]
CC[C@H](C)[C@H](NC(=O)[C@H](C)NC(=O)[C@@H](NC(=O)[C@H](C)NC(=O)[C@@H]1CCCN1)[C@@H](C)CC)C(=O)N[C@@H](C)C(=O)N[C@H](C(=O)N[C@@H](Cc1c[nH]cn1)C(=O)N[C@@H](CO)C(=O)N[C@@H](CCC(N)=O)C(=O)N[C@@H](CC(=O)O)C(=O)N[C@H](C(=O)N[C@@H](CO)C(=O)N[C@H](C(=O)N1CCC[C@H]1C(=O)O)[C@@H](C)CC)C(C)C)C(C)C [Peptide S16] (H-PAIAIAVHSQDVSIP-OH; N-terminus and C-terminus assumed) | prevents S16 binding | ≈ 2 × 10^2 M^−1s^−1 | binding is not observed | ~0.0001 | reduced | negligible; also recorded: unable to compete | no change in proliferation | 60 | ~ 90% |  |  | 
CC[C@H](C)[C@H](NC(=O)[C@H](CO)NC(=O)[C@@H](N)C(C)C)C(=O)NCC(=O)N[C@@H](Cc1ccc(O)cc1)C(=O)N[C@@H](CC(C)C)C(=O)N[C@@H](CC(C)C)C(=O)N[C@H](C(=O)N[C@@H](CCCCN)C(=O)N[C@@H](Cc1c[nH]cn1)C(=O)N[C@@H](CO)C(=O)N[C@@H](CCC(N)=O)C(=O)N[C@H](C(=O)N[C@@H](CC(=O)O)C(=O)N[C@@H](CCC(N)=O)C(=O)O)[C@@H](C)O)C(C)C [Peptide U12] (H-VSIGYLLVKHSQTDQ-OH; N-terminus and C-terminus assumed) |  |  |  | 0.0125 ± 0.0002 |  |  |  |  |  | 150 ± 10 |  | 
SPIAVDVQSAPIHAI [scrambled S16, reference compound] |  |  |  |  |  |  |  |  |  |  | minimal binding | no significant difference
